system: tumor necrosis factor (α) (TNF-α); experiment: Cytokine induction in human cells: TNF-α secreted by PBMC into culture media (ORIGEN M-Series immunoassay); assay type: cell-based; settings: Table 11; human PBMC; median where tested in more than one experiment
Outline: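 Secreted TNF-α (pg/mL) was quantified by ORIGEN M-Series immunoassay after 18 to 24 hours culture at 37° C of human PBMC (2×10^6 cells/mL final) with test compound (usually 30-0.014 μM, 3-fold series, DMSO ≤1%). Values were corrected for DMSO or experimental background and a reference-compound ratio, giving a minimum effective concentration.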

First: COCCc1nc2c(N)nc3ccccc3c2n1CCCNS(C)(=O)=O [Analog 62]
Second: COCCc1nc2c(N)nc3ccccc3c2n1CCNS(C)(=O)=O [Analog 72]
The “Minimum Effective Concentration TNF” value of the first is 28-fold higher: 1.11 µM for the first, 0.04 µM for the second.

Compared with Cc1nc2c(N)nc3ccccc3c2n1CC(C)(C)CNS(C)(=O)=O [Analog 63], CCc1nc2c(N)nc3ccccc3c2n1CC(C)(C)CNS(C)(=O)=O [Analog 64] is 3-fold lower in “Minimum Effective Concentration TNF” value: 10 µM for the first, 3.33 µM for the second.

First: CCCc1nc2c(N)nc3ccccc3c2n1CC(C)(C)CNS(C)(=O)=O [Analog 65]
Second: COCCc1nc2c(N)nc3ccccc3c2n1CC(C)(C)CNS(C)(=O)=O [Analog 67]
The “Minimum Effective Concentration TNF” value of the first is 250-fold higher: 10 µM for the first, 0.04 µM for the second.

Going from CCOCc1nc2c(N)nc3ccccc3c2n1CC(C)(C)CNS(C)(=O)=O [Analog 66] to CCOCc1nc2c(N)nc3ccccc3c2n1CCNS(C)(=O)=O [Analog 71], the “Minimum Effective Concentration TNF” value rises from 0.37 µM to 3.33 µM (9-fold).

Cc1nc2c(N)nc3ccccc3c2n1CCNS(C)(=O)=O [Analog 68] and CCc1nc2c(N)nc3ccccc3c2n1CCNS(C)(=O)=O [Analog 69] are the same in “Minimum Effective Concentration TNF” value: 10 µM for the first, 10 µM for the second.

Going from CCCc1nc2c(N)nc3ccccc3c2n1CCNS(C)(=O)=O [Analog 70] to CCCc1nc2c(N)nc3ccccc3c2n1CCCCCS(C)(=O)=O [Analog 75], the “Minimum Effective Concentration TNF” value falls from 10 µM to 1.11 µM (9-fold).

Going from Cc1nc2c(N)nc3ccccc3c2n1CCCCCS(C)(=O)=O [Analog 73] to CCc1nc2c(N)nc3ccccc3c2n1CCCCCS(C)(=O)=O [Analog 74], the “Minimum Effective Concentration TNF” value falls from 3.33 µM to 1.11 µM (3-fold).

Going from COCCc1nc2c(N)nc3ccccc3c2n1CCCCCS(C)(=O)=O [Analog 76] to COCCc1nc2c(N)nc3ccccc3c2n1CCOCCN(C)S(C)(=O)=O [Analog 80], the “Minimum Effective Concentration TNF” value falls from 1.11 µM to 0.37 µM (3-fold).

Cc1nc2c(N)nc3ccccc3c2n1CCOCCN(C)S(C)(=O)=O [Analog 77] and CCc1nc2c(N)nc3ccccc3c2n1CCOCCN(C)S(C)(=O)=O [Analog 78] are the same in “Minimum Effective Concentration TNF” value: 1.11 µM for the first, 1.11 µM for the second.

In the case of CCCc1nc2c(N)nc3ccccc3c2n1CCOCCN(C)S(C)(=O)=O [Analog 79], the “Minimum Effective Concentration TNF” value is reported as 3.33 µM.

same assay, conditions: Table 11; human PBMC; median; * = TNF below experimental background of 40 pg/mL

Compared with COCCc1nc2c(N)nc3ccccc3c2n1CCCNS(C)(=O)=O [Analog 62], COCCc1nc2c(N)nc3ccccc3c2n1CCNS(C)(=O)=O [Analog 72] is 9-fold higher in “Maximal Response TNF” value: 954 pg/mL for the first, 8547 pg/mL for the second.

Compared with Cc1nc2c(N)nc3ccccc3c2n1CC(C)(C)CNS(C)(=O)=O [Analog 63], CCc1nc2c(N)nc3ccccc3c2n1CC(C)(C)CNS(C)(=O)=O [Analog 64] is 1.8-fold higher in “Maximal Response TNF” value: 805 pg/mL for the first, 1453 pg/mL for the second.

Going from CCCc1nc2c(N)nc3ccccc3c2n1CC(C)(C)CNS(C)(=O)=O [Analog 65] to COCCc1nc2c(N)nc3ccccc3c2n1CC(C)(C)CNS(C)(=O)=O [Analog 67], the “Maximal Response TNF” value rises from 1929 pg/mL to 5467 pg/mL (2.8-fold).

CCOCc1nc2c(N)nc3ccccc3c2n1CC(C)(C)CNS(C)(=O)=O [Analog 66] and CCOCc1nc2c(N)nc3ccccc3c2n1CCNS(C)(=O)=O [Analog 71] are within 1.5-fold of each other in “Maximal Response TNF” value: 3768 pg/mL for the first, 4918 pg/mL for the second.

Cc1nc2c(N)nc3ccccc3c2n1CCNS(C)(=O)=O [Analog 68] and CCc1nc2c(N)nc3ccccc3c2n1CCNS(C)(=O)=O [Analog 69] are the same in “Maximal Response TNF” value: 820 pg/mL for the first, 820 pg/mL for the second.

Compared with CCCc1nc2c(N)nc3ccccc3c2n1CCNS(C)(=O)=O [Analog 70], CCCc1nc2c(N)nc3ccccc3c2n1CCCCCS(C)(=O)=O [Analog 75] is 13-fold lower in “Maximal Response TNF” value: 11432 pg/mL for the first, 848 pg/mL for the second.

First: Cc1nc2c(N)nc3ccccc3c2n1CCCCCS(C)(=O)=O [Analog 73]
Second: CCc1nc2c(N)nc3ccccc3c2n1CCCCCS(C)(=O)=O [Analog 74]
The “Maximal Response TNF” value of the first is 2-fold lower: 771 pg/mL for the first, 1545 pg/mL for the second.

Compared with COCCc1nc2c(N)nc3ccccc3c2n1CCCCCS(C)(=O)=O [Analog 76], COCCc1nc2c(N)nc3ccccc3c2n1CCOCCN(C)S(C)(=O)=O [Analog 80] is 2.8-fold lower in “Maximal Response TNF” value: 6169 pg/mL for the first, 2191 pg/mL for the second.

Cc1nc2c(N)nc3ccccc3c2n1CCOCCN(C)S(C)(=O)=O [Analog 77] and CCc1nc2c(N)nc3ccccc3c2n1CCOCCN(C)S(C)(=O)=O [Analog 78] are within 1.5-fold of each other in “Maximal Response TNF” value: 3571 pg/mL for the first, 2525 pg/mL for the second.

With CCCc1nc2c(N)nc3ccccc3c2n1CCOCCN(C)S(C)(=O)=O [Analog 79] the “Maximal Response TNF” value was 1312 pg/mL.

system: interferon (α) (IFN-α); experiment: Cytokine induction in human cells: IFN-α secreted by PBMC into culture media (ELISA); assay type: cell-based; settings: Table 11; human PBMC; median where tested in more than one experiment
Outline: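 IFN-α secreted by density-gradient-isolated PBMC (final 2×10^6 cells/mL) was quantified by ELISA after 18–24 h compound exposure at 37 °C, typically 30-0.014 μM in 3-fold steps with ≤1% DMSO. Readings corrected for background and reference-compound variability; lowest concentration above usually 20 pg/mL reported, plus maximal response (pg/mL).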

COCCc1nc2c(N)nc3ccccc3c2n1CCCNS(C)(=O)=O [Analog 62] and COCCc1nc2c(N)nc3ccccc3c2n1CCNS(C)(=O)=O [Analog 72] are within 1.5-fold of each other in “Maximal Response IFN” value: 3995 pg/mL for the first, 5858 pg/mL for the second.

Cc1nc2c(N)nc3ccccc3c2n1CC(C)(C)CNS(C)(=O)=O [Analog 63] and CCc1nc2c(N)nc3ccccc3c2n1CC(C)(C)CNS(C)(=O)=O [Analog 64] are within 1.5-fold of each other in “Maximal Response IFN” value: 1019 pg/mL for the first, 1431 pg/mL for the second.

CCCc1nc2c(N)nc3ccccc3c2n1CC(C)(C)CNS(C)(=O)=O [Analog 65] and COCCc1nc2c(N)nc3ccccc3c2n1CC(C)(C)CNS(C)(=O)=O [Analog 67] are within 1.5-fold of each other in “Maximal Response IFN” value: 1711 pg/mL for the first, 1805 pg/mL for the second.

Going from CCOCc1nc2c(N)nc3ccccc3c2n1CC(C)(C)CNS(C)(=O)=O [Analog 66] to CCOCc1nc2c(N)nc3ccccc3c2n1CCNS(C)(=O)=O [Analog 71], the “Maximal Response IFN” value rises from 561 pg/mL to 1465 pg/mL (2.6-fold).

Cc1nc2c(N)nc3ccccc3c2n1CCNS(C)(=O)=O [Analog 68] and CCc1nc2c(N)nc3ccccc3c2n1CCNS(C)(=O)=O [Analog 69] are the same in “Maximal Response IFN” value: 1610 pg/mL for the first, 1610 pg/mL for the second.

First: CCCc1nc2c(N)nc3ccccc3c2n1CCNS(C)(=O)=O [Analog 70]
Second: CCCc1nc2c(N)nc3ccccc3c2n1CCCCCS(C)(=O)=O [Analog 75]
The “Maximal Response IFN” value of the first is 2.4-fold higher: 2003 pg/mL for the first, 828 pg/mL for the second.

Cc1nc2c(N)nc3ccccc3c2n1CCCCCS(C)(=O)=O [Analog 73] and CCc1nc2c(N)nc3ccccc3c2n1CCCCCS(C)(=O)=O [Analog 74] are within 1.5-fold of each other in “Maximal Response IFN” value: 1294 pg/mL for the first, 1062 pg/mL for the second.

Compared with COCCc1nc2c(N)nc3ccccc3c2n1CCCCCS(C)(=O)=O [Analog 76], COCCc1nc2c(N)nc3ccccc3c2n1CCOCCN(C)S(C)(=O)=O [Analog 80] is 1.7-fold lower in “Maximal Response IFN” value: 2695 pg/mL for the first, 1630 pg/mL for the second.

Going from Cc1nc2c(N)nc3ccccc3c2n1CCOCCN(C)S(C)(=O)=O [Analog 77] to CCc1nc2c(N)nc3ccccc3c2n1CCOCCN(C)S(C)(=O)=O [Analog 78], the “Maximal Response IFN” value rises from 1001 pg/mL to 1803 pg/mL (1.8-fold).

For CCCc1nc2c(N)nc3ccccc3c2n1CCOCCN(C)S(C)(=O)=O [Analog 79], the “Maximal Response IFN” value was 1055 pg/mL.

COCCc1nc2c(N)nc3ccccc3c2n1CCCNS(C)(=O)=O [Analog 62] and COCCc1nc2c(N)nc3ccccc3c2n1CCNS(C)(=O)=O [Analog 72] are the same in “Minimum Effective Concentration IFN” value: 0.014 µM for the first, 0.014 µM for the second.

Going from Cc1nc2c(N)nc3ccccc3c2n1CC(C)(C)CNS(C)(=O)=O [Analog 63] to CCc1nc2c(N)nc3ccccc3c2n1CC(C)(C)CNS(C)(=O)=O [Analog 64], the “Minimum Effective Concentration IFN” value falls from 0.37 µM to 0.12 µM (3.1-fold).

Compared with CCCc1nc2c(N)nc3ccccc3c2n1CC(C)(C)CNS(C)(=O)=O [Analog 65], COCCc1nc2c(N)nc3ccccc3c2n1CC(C)(C)CNS(C)(=O)=O [Analog 67] is 8.6-fold lower in “Minimum Effective Concentration IFN” value: 0.12 µM for the first, 0.014 µM for the second.

CCOCc1nc2c(N)nc3ccccc3c2n1CC(C)(C)CNS(C)(=O)=O [Analog 66] and CCOCc1nc2c(N)nc3ccccc3c2n1CCNS(C)(=O)=O [Analog 71] are the same in “Minimum Effective Concentration IFN” value: 0.12 µM for the first, 0.12 µM for the second.

Cc1nc2c(N)nc3ccccc3c2n1CCNS(C)(=O)=O [Analog 68] and CCc1nc2c(N)nc3ccccc3c2n1CCNS(C)(=O)=O [Analog 69] are the same in “Minimum Effective Concentration IFN” value: 0.12 µM for the first, 0.12 µM for the second.

Compared with CCCc1nc2c(N)nc3ccccc3c2n1CCNS(C)(=O)=O [Analog 70], CCCc1nc2c(N)nc3ccccc3c2n1CCCCCS(C)(=O)=O [Analog 75] is 250-fold lower in “Minimum Effective Concentration IFN” value: 30 µM for the first, 0.12 µM for the second.

Compared with Cc1nc2c(N)nc3ccccc3c2n1CCCCCS(C)(=O)=O [Analog 73], CCc1nc2c(N)nc3ccccc3c2n1CCCCCS(C)(=O)=O [Analog 74] is 3.1-fold lower in “Minimum Effective Concentration IFN” value: 0.37 µM for the first, 0.12 µM for the second.

COCCc1nc2c(N)nc3ccccc3c2n1CCCCCS(C)(=O)=O [Analog 76] and COCCc1nc2c(N)nc3ccccc3c2n1CCOCCN(C)S(C)(=O)=O [Analog 80] are the same in “Minimum Effective Concentration IFN” value: 0.014 µM for the first, 0.014 µM for the second.

Cc1nc2c(N)nc3ccccc3c2n1CCOCCN(C)S(C)(=O)=O [Analog 77] and CCc1nc2c(N)nc3ccccc3c2n1CCOCCN(C)S(C)(=O)=O [Analog 78] are the same in “Minimum Effective Concentration IFN” value: 0.12 µM for the first, 0.12 µM for the second.

For CCCc1nc2c(N)nc3ccccc3c2n1CCOCCN(C)S(C)(=O)=O [Analog 79], the “Minimum Effective Concentration IFN” value was 0.37 µM.
